Measured values from patent publication US20210113522A1, “COUMARIN DERIVATIVE AS ANTI-ASTHMATIC AGENT, PHARMACEUTICAL COMPOSITION THEREOF, ITS PREPARATION AND USE” (I-NOVA MEDICINSKA ISTRAZIVANJA D.O.O., priority 2017, published 2021).

Key:
[1] = test system: croton oil-induced ear edema; experiment: Croton oil-induced ear edema in mice; type: in vivo, Balb/c mice; settings: dexamethasone 1 mg/kg, 1 2 mg/kg
Source text: The presents study aims to detect the inflammatory/anti-inflammatory potential effects of compound 1 in a model of acute skin inflammation induced by local application of phlogistic agent croton oil in Balb/c mice. The technique for croton oil-induced ear edema in mice, originally described by Tubaro et al., was followed, with modifications; see literature references 16 and 17: • 16) A. Tubaro, P. Dri, G. Delbello, C. Zilli, R. Della Loggia: The croton oil ear test revisited, Agents Actions 17 (1986) 347-349. • 17) G. Coruzzi, C. Pozzoli, M. Adami, D. Grandi, N. Guido, R. Smits, I. de Esch and R. Leurs: Strain-dependent effects of the histamine H4 receptor antagonist JNJ7777120 in a murine model of acute skin inflammation, Experimental Dermatology 21 (2011) 32-37.
Mice (total 40) were separated into 4 groups (n=10). Each group was treated under different regimen:
Cutaneous inflammation was induced in conscious mice by topical application of croton oil (5% in acetone).
Six hours after croton oil application, mice were euthanized by light ether anaesthesia, followed by cervical dislocation; both left (acetone) and right (croton oil in acetone) ears were removed, by cutting horizontally across the indentation at the base of the ear. For each mouse, the extent of the oedema was expressed as the difference in weight (Δ [mg]) between right (inflamed) and left (uninflamed) ear. The percentage increase in the oedema of the treated ear was calculated by the following formula: […]
The presents study aims to detect the inflammatory/anti-inflammatory potential effects of compound 1 in a model of acute skin inflammation induced by local application of phlogistic agent croton oil in Balb/c mice. The technique for croton oil-induced ear edema in mice, originally described by Tubaro et al., was followed, with modifications; see literature references 16 and 17.
In preliminary experiments, the effect of subcutaneous (s.c.) administration of saline, 100% DMSO or 20% 2-hydroxypropyl-β-cyclodextrin was investigated to check the vehicle effects on ear inflammation.
The statistical significance between the groups was assessed by one-way analysis of variance (ANOVA) followed by a post hoc Tukey test. The accepted level of significance for the test was P<0.05. All tests were carried out using GraphPad Software (San Diego, Calif., USA).

[2] = test system: mucus production in the airway; experiment: OVA model: airway mucus production (PAS staining); type: in vivo, Balb/c mice; settings: vs mice that received no treatment; 1 2 mg/kg therapeutically or preventively, beclomethasone 1 mg/kg
Experimental: Enhanced airway mucus production results from airway inflammation and is hallmark of allergic asthma. Thus, mechanisms that suppress immune responses in the lung could result in suppression of mucus production. Mucus production was measured 2 days after i.n. challenge in experimental mice that were treated with compound 1 or beclomethasone (as standard) and lung sections were stained with periodic acid-Schiff stain (PAS). Mucus production in the lung was quantitated immunohistologically by evaluation of mucus-positive epithelia. […]
Mucus production was measured 2 days after i.n. challenge in experimental mice that were treated with compound 1 or beclomethasone (as standard) and lung sections were stained with PAS. Mucus production in the lung was quantitated immunohistologically by evaluation of mucus-positive epithelia.

SMILES: O=c1oc2cc(O)cc(O)c2c(O)c1-c1coc2c1c(=O)oc1cc(O)cc(O)c12 [Compound 1, 7,9-dihydroxy-3-(4,5,7-trihydroxy-2-oxo-2H-chromene-3-yl)-4H-furo[3,2-c]chromen-4-one]
- Ear edema Δm (right minus left ear) ([1]; 6 h after croton oil): 0.0321 g
- Percentage of increasing the ear edema ([1]; 6 h after croton oil): 92.98%
- Maximal inhibition of croton oil-induced ear oedema ([1]; Balb/c mice, 6 h): ~40%
- Left ear m ([1]; left ear: 80% 2HPβCD + 20% DMSO (uninflamed), 6 h): 0.0344 g
- Right ear m ([1]; right ear: substance + croton oil after 30 min, 6 h): 0.0665 g
- Mucin production in the airway (PAS) [2]: significant reduction
